Legend:
[1] = target: T1, human norepinephrine transporter (Homo sapiens, UniProt P23975); assay: hNET receptor binding ([125I]-RTI-55 radioligand binding); conditions: membranes of HEK-293 cells transfected with human norepinephrine transporter, IC50 converted to Ki by Cheng-Prusoff, read-out: hNET (Ki)
T1 construct: host or cells: HEK-293
Text: (§1) The ability of the compounds of this invention to bind to the hNET and serotonin SERT receptor can be determined using conventional radiolig and receptor binding assays. The receptors can be heterologously expressed in cell lines and experiments conducted in membrane preparations from the cell lines using procedures outlined below. IC50 concentrations can be determined by nonlinear regression of concentration-dependent reduction in specific binding. The Cheng-Prussoff equation can be used to convert the IC50 to Ki concentrations.
Cell pastes of HEK-293 cells transfected with the human norepinephrine transporter were supplied by the Pfizer Ann Arbor Protein Expression and Production group. […] Aliquots of membranes (5 mg/ml protein) were stored in liquid nitrogen until used.
(§2) The reaction was incubated by gentle agitation for 90 min at room temperature and was terminated by filtration through Whatman GF/C filter plates using a Brandel 96-well plate harvester. […] Test compounds were run in duplicate, and specific binding was defined as the difference between binding in the presence and absence of 10 μM desipramine.
(§3) Excel and GraphPad Prism software were used for data calculation and analysis. IC50 values were converted to Ki values using the Cheng-Prusoff equation.

[2] = target: T2, human seritonin transporter (Homo sapiens, UniProt P31645); assay: hSERT receptor binding ([125I]-RTI-55 radioligand binding); conditions: membranes of HEK-293 cells transfected with human seritonin transporter, IC50 converted to Ki by Cheng-Prusoff, read-out: SERT (Ki)
T2 construct: host or cells: HEK-293
Text: as §1
Cell pastes of HEK-293 cells transfected with the human seritonin transporter were supplied by the Pfizer Ann Arbor Protein Expression and Production group. […] Aliquots of membranes (5 mg/ml protein) were stored in liquid nitrogen until used.
as §2, with “[…] citalopram.” for “μM desipramine.”
as §3

T2 sequence (P31645 whole entry): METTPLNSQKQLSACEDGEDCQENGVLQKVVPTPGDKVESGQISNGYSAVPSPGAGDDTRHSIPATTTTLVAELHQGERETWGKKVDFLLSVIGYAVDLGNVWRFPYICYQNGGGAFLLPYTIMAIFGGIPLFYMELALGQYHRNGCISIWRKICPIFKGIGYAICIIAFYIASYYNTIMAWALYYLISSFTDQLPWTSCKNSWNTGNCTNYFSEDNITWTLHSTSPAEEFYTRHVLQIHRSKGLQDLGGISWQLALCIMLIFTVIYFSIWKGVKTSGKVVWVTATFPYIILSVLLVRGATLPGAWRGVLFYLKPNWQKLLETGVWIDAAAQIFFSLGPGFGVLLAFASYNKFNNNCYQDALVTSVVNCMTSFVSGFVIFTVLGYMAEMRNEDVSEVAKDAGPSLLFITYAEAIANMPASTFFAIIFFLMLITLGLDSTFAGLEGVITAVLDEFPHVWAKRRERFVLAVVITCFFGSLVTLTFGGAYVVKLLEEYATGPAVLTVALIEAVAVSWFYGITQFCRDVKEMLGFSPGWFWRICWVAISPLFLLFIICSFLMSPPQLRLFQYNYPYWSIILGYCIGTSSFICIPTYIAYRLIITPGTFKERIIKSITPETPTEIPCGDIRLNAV
T1 sequence (P23975 whole entry): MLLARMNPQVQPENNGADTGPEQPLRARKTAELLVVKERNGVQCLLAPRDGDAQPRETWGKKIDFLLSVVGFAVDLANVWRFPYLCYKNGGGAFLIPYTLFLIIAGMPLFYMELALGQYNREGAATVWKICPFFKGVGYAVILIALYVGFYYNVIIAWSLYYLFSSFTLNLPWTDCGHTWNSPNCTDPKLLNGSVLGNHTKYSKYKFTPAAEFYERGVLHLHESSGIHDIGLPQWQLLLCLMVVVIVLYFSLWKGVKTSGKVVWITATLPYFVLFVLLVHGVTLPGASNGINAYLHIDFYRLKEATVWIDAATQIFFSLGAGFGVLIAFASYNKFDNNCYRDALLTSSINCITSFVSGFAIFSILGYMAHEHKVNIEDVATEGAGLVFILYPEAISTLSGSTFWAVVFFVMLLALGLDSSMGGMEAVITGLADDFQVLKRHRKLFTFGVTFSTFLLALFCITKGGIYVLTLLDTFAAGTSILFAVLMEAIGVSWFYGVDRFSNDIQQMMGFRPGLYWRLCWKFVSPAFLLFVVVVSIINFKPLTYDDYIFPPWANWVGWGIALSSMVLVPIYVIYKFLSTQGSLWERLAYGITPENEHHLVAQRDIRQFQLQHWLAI

Row | SMILES | Ki [1] [nM] | Ki [2] [nM]
1 | Fc1ccccc1OC(c1cccnc1)[C@@H]1CNCCO1 (mixture of isomers) [Example 23, (S)-2-[(S)-(2-Fluorophenoxy)-pyridin-3-yl-methyl]-morpholine] | 51 | 2630
2 | COc1cccc(F)c1OC(c1cccnc1)[C@H]1CNCCO1 (mixture of isomers) [Example 31, (2R,3R) and (R)-2-[(S)-(2-Fluoro-6-methoxy-phenoxy)-pyridin-3-yl-methyl]-morpholine] | 85 | 348
3 | Fc1ccc(OC(C2CC2)[C@@H]2CNCCO2)c(F)c1 (mixture of isomers) [Example 99, (2S)-2-[cyclopropyl(2,4-difluorophenoxy)methyl]morpholine] | 880 | 1270
4 | Cc1ccccc1-c1ccccc1OCC1CNCCO1 (racemic) [Example 88, 2-(2′-Methyl-biphenyl-2-yloxymethyl)-morpholine] | 633 | ≥ 10000
5 | N#Cc1ccccc1O[C@@H](c1ccccn1)[C@@H]1CNCCO1 (single isomer, unassigned) [Example 22 (2S, 3R)] | 4820 | 6670
6 | CCOc1ccccc1O[C@H](c1cccnc1)[C@@H]1CNCCO1 (single isomer, unassigned) [Example 25] | 124 | ≥ 10000
7 | Cc1ccc(-c2cc(F)ccc2OCC2CNCCO2)cc1 (single isomer, unassigned) [Example 75] | 22 | 849
8 | Fc1ccc(OC(c2cccnc2)C2CNCCO2)c(Cl)c1 (stereo in doubt) [Example 19, (S)-2-[(R)-(2-Chloro-4-fluoro-phenoxy)-pyridin-3-yl-methyl]-morpholine] | 1020 | 74
9 | c1ccc(C(Oc2ccc3ccoc3c2)C2CNCCO2)cc1 (stereo in doubt) [Example 45, (R)-2-[(S)-(Benzofuran-6-yloxy)-phenyl-methyl]-morpholine] | 10 | 45
10 | CCOc1ccccc1OC(c1cccc(F)c1)C1CNCCO1 (stereo in doubt) [Example 70, (R)-2-[(S)-(2-Ethoxy-phenoxy)-(3-fluoro-phenyl)-methyl]-morpholine] | 11 | 818
11 | Fc1ccc(Oc2nccnc2OCC2CNCCO2)cc1 (stereo in doubt) [Example 78, (S)-2-[3-(4-Fluoro-phenoxy)-pyrazin-2-yloxymethyl]-morpholine] | 7970 | ≥ 10000
12 | CCOc1ccccc1OC(c1cccc[n+]1[O-])[C@@H]1CNCCO1 (stereo in doubt) [Example 100, (2S)-2-[(S)-(2-ethoxyphenoxy)(1-oxidopyridin-2-yl)methyl]morpholine] | 152 | ≥ 10000
13 | FC(F)(F)Oc1ccccc1O[C@@H](c1ccccc1)[C@@H]1CNCCO1 [Example 1, (S)-2-[(S)-Phenyl-(2-trifluoromethoxy-phenoxy)-methyl]-morpholine] | 9.9 | 3940
14 | CCSc1ccccc1O[C@@H](c1ccccc1)[C@@H]1CNCCO1 [Example 2, (S)-2-[(S)-(2-Ethylsulfanyl-phenoxy)-phenyl-methyl]-morpholine] | 6.3 | 564
15 | CC(C)Cc1ccccc1O[C@@H](c1ccccc1)[C@@H]1CNCCO1 [Example 3, (S)-2-[(S)-(2-isobutyl-phenoxy)-phenyl-methyl]-morpholine] | 33 | 1580
16 | Brc1ccccc1O[C@@H](c1ccccc1)[C@@H]1CNCCO1 [Example 4, (S)-2-[(S)-(2-Bromo-phenoxy)-phenyl-methyl]-morpholine] | 1.6 | 708
17 | C=Cc1ccccc1O[C@@H](c1ccccc1)[C@@H]1CNCCO1 [Example 5, (S)-2-[(S)-Phenyl-(2-vinyl-phenoxy)-methyl]-morpholine] | 13 | 1180
18 | COCc1ccccc1O[C@@H](c1ccccc1)[C@@H]1CNCCO1 [Example 7, (S)-2-[(S)-(2-Methoxymethyl-phenoxy)-phenyl-methyl]-morpholine] | 17 | 6610
19 | FC(F)(F)c1ccccc1O[C@@H](c1ccccc1)[C@@H]1CNCCO1 [Example 8, (S)-2-[(S)-Phenyl-(2-trifluoromethyl-phenoxy)-methyl]-morpholine] | 4.2 | 4710
20 | c1ccc(Cc2ccccc2O[C@@H](c2ccccc2)[C@@H]2CNCCO2)cc1 [Example 9, (S)-2-[(S)-(2-Benzyl-phenoxy)-phenyl-methyl]-morpholine] | 15 | 967
21 | c1ccc([C@H](Oc2ccccc2-c2ccncc2)[C@@H]2CNCCO2)cc1 [Example 10, (S)-2-[(S)-Phenyl-(2-pyridin-4-yl-phenoxy)-methyl]-morpholine] | 689 | ≥ 10000
22 | c1ccc([C@H](Oc2ccccc2C2CC2)[C@@H]2CNCCO2)cc1 [Example 11, (S)-2-[(S)-(2-Cyclopropyl-phenoxy)-phenyl-methyl]-morpholine] | 1.8 | 452
23 | c1ccc([C@H](Oc2cccc3ccccc23)[C@@H]2CNCCO2)cc1 [Example 12, (S)-2-[(S)-(Naphthalen-1-yloxy)-phenyl-methyl]-morpholine] | 6.7 | 6.4
24 | c1ccc([C@H](Oc2ccccc2-c2cccnc2)[C@@H]2CNCCO2)cc1 [Example 13, (S)-2-[(S)-Phenyl-(2-pyridin-3-yl-phenoxy)-methyl]-morpholine] | 18 | 4100
25 | N#Cc1ccccc1O[C@@H](c1ccccn1)[C@@H]1CNCCO1 [Example 22 (2S, 3S), (2S,3S)-2-(Morpholin-2-yl-pyridin-2-yl-methoxy)-benzonitrile] | 12 | 

The remaining lines, values ahead:

Row | Ki [1] [nM] | Ki [2] [nM] | SMILES
26 | 66 | 912 | Fc1cccc(F)c1OC(Cc1ccccc1)[C@@H]1CNCCO1 (mixture of isomers) [Example 101, (2S)-2-[1-(2,6-difluorophenoxy)-2-phenylethyl]morpholine]
27 | 2390 | 9790 | CCCC(Oc1ccccc1OCC)[C@@H]1CNCCO1 (mixture of isomers) [Example 104, (2S)-2-[(1S)-1-(2-ethoxyphenoxy)butyl]morpholine]
28 | 1500 | 5590 | CCOc1ccccc1OC(CC(C)C)[C@@H]1CNCCO1 (mixture of isomers) [Example 105, (2S)-2-[(1S)-1-(2-ethoxyphenoxy)-3-methylbutyl]morpholine]
29 | 54 | ≥ 10000 | CCOc1ccccc1OC(CC)[C@@H]1CNCCO1 (mixture of isomers) [Example 106]
30 | 18 | ≥ 10000 | Cc1coc(C(Oc2c(F)cccc2F)[C@@H]2CNCCO2)n1 (mixture of isomers) [Example 134, (2S)-2-[(2,6-difluorophenoxy)(4-methyl-1,3-oxazol-2-yl)methyl]morpholine]
31 | 102 | 6140 | CCOc1ncccc1OC(CC)[C@@H]1CNCCO1 (mixture of isomers) [Example 136, (2S)-2-{1-[(2-ethoxypyridin-3-yl)oxy]propyl}morpholine]
32 | 896 | 3320 | Fc1cccc(F)c1OC(c1cc2ccccc2o1)[C@@H]1CNCCO1 (mixture of isomers) [Example 143, (2S)-2-[1-benzofuran-2-yl(2,6-difluorophenoxy)methyl]morpholine]
33 | 20 | 3700 | Fc1cccc(F)c1OC(C1=CCCC1)[C@@H]1CNCCO1 (mixture of isomers) [Example 146, (2S)-2-[(S)-cyclopent-1-en-1-yl(2,6-difluorophenoxy)methyl]morpholine]
34 | 10 | 7060 | CCOc1ccccc1OC(c1ncco1)[C@@H]1CNCCO1 (mixture of isomers) [Example 195, (S)-2-[(2-ethoxyphenoxy)(1,3-oxazol-2-yl)methyl]morpholine]
35 | 9 | ≥ 10000 | Fc1cccc(F)c1OC(c1ncco1)[C@@H]1CNCCO1 (mixture of isomers) [Example 196, (S)-2-[(2,6-difluorophenoxy)(1,3-oxazol-2-yl)methyl]morpholine]
36 | 45 | 722 | COc1cccc(F)c1OC(c1cccnc1)[C@H]1CNCCO1 (mixture of isomers) [Example 202, (2R)-2-[(2-fluoro-6-methoxyphenoxy)(pyridin-3-yl)methyl]morpholine]
37 | 10 | ≥ 10000 | Fc1ccccc1OC(c1ccccn1)[C@@H]1CNCCO1 (single isomer, unassigned) [Example 120]
38 | 470 | ≥ 10000 | Fc1ccccc1OC(c1ccccn1)[C@@H]1CNCCO1 (single isomer, unassigned) [Example 121]
39 | 6 | 460 | Fc1cccc(C2CC2)c1O[C@@H](c1ccccc1)C1CNCCO1 (stereo in doubt) [Example 184, (2S)-2-[(S)-(2-cyclopropyl-6-fluorophenoxy)(phenyl)methyl]morpholine]

Reference: patent US7659394B2 (Pfizer Inc, priority 2004, dated 2010)
